Laboratory results: PubChem BioAssay (NCI)
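Compound exposure: 48 hours, 5 concentrations, 96-well plates. TGI marks complete inhibition of growth.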

What was measured:
Test in all cases: DTP human tumour cell line panel, 48 h
NCI-H522 lung = system: NCI-H522 lung
SK-MEL-28 melanoma = system: SK-MEL-28 melanoma
A549 NSCLC = system: A549 NSCLC
HCC-2998 colon = system: HCC-2998 colon
UO-31 renal = system: UO-31 renal
DLD-1 colon = system: DLD-1 colon
SNB-78 CNS = system: SNB-78 CNS
SW-620 colon = system: SW-620 colon
SK-MEL-5 melanoma = system: SK-MEL-5 melanoma
HCT-15 colon = system: HCT-15 colon
HOP-92 NSCLC = system: HOP-92 NSCLC
HCT-116 colon = system: HCT-116 colon
HL-60(TB) leukemia = system: HL-60(TB) leukemia
TK-10 renal = system: TK-10 renal
SF-268 CNS = system: SF-268 CNS
SNB-19 CNS = system: SNB-19 CNS
M19-MEL melanoma = system: M19-MEL melanoma
OVCAR-5 ovarian = system: OVCAR-5 ovarian
SK-OV-3 ovarian = system: SK-OV-3 ovarian
RPMI-8226 leukemia = system: RPMI-8226 leukemia
SNB-75 CNS = system: SNB-75 CNS
IGROV1 ovarian = system: IGROV1 ovarian
EKVX NSCLC = system: EKVX NSCLC
HOP-62 NSCLC = system: HOP-62 NSCLC
K-562 leukemia = system: K-562 leukemia
COLO 205 colon = system: COLO 205 colon
HT29 colon = system: HT29 colon
SN12C renal = system: SN12C renal
OVCAR-4 ovarian = system: OVCAR-4 ovarian
CCRF-CEM leukemia = system: CCRF-CEM leukemia
ACHN renal = system: ACHN renal
MOLT-4 leukemia = system: MOLT-4 leukemia
U251 CNS = system: U251 CNS
UACC-62 melanoma = system: UACC-62 melanoma
KM20L2 colon = system: KM20L2 colon
DMS 114 small cell lung = system: DMS 114 small cell lung
KM12 colon = system: KM12 colon
OVCAR-3 ovarian = system: OVCAR-3 ovarian
UACC-257 melanoma = system: UACC-257 melanoma
MALME-3M melanoma = system: MALME-3M melanoma
SF-295 CNS = system: SF-295 CNS
786-0 renal = system: 786-0 renal
SR leukemia = system: SR leukemia
NCI-H226 lung = system: NCI-H226 lung
XF 498 CNS = system: XF 498 CNS
LXFL 529 NSCLC = system: LXFL 529 NSCLC
SK-MEL-2 melanoma = system: SK-MEL-2 melanoma
M14 melanoma = system: M14 melanoma
CAKI-1 renal = system: CAKI-1 renal
SF-539 CNS = system: SF-539 CNS
LOX IMVI melanoma = system: LOX IMVI melanoma
NCI-H23 lung = system: NCI-H23 lung
DMS 273 small cell lung = system: DMS 273 small cell lung
RXF 393 renal = system: RXF 393 renal
NCI-H460 lung = system: NCI-H460 lung
OVCAR-8 ovarian = system: OVCAR-8 ovarian

c1ccc(C2N=NN(c3ccccc3)C2N2CCCCC2)cc1 (stereo not given)
TGI (NCI-H522 lung): > 100 µM | TGI (SK-MEL-28 melanoma): > 100 µM | TGI (A549 NSCLC): > 100 µM | TGI (HCC-2998 colon): > 100 µM | TGI (UO-31 renal): > 100 µM | TGI (DLD-1 colon): > 100 µM | TGI (SNB-78 CNS): > 100 µM | TGI (SW-620 colon): > 100 µM | TGI (SK-MEL-5 melanoma): > 100 µM | TGI (HCT-15 colon): > 100 µM | TGI (HOP-92 NSCLC): 62.4 µM | TGI (HCT-116 colon): > 100 µM | TGI (HL-60(TB) leukemia): > 100 µM | TGI (TK-10 renal): > 100 µM | TGI (SF-268 CNS): > 100 µM | TGI (SNB-19 CNS): > 100 µM | TGI (M19-MEL melanoma): > 100 µM | TGI (OVCAR-5 ovarian): > 100 µM | TGI (SK-OV-3 ovarian): 98.3 µM | TGI (RPMI-8226 leukemia): > 100 µM | TGI (SNB-75 CNS): 55 µM | TGI (IGROV1 ovarian): > 100 µM | TGI (EKVX NSCLC): > 100 µM | TGI (HOP-62 NSCLC): > 100 µM | TGI (K-562 leukemia): > 100 µM | TGI (COLO 205 colon): > 100 µM | TGI (HT29 colon): > 100 µM | TGI (SN12C renal): > 100 µM | TGI (OVCAR-4 ovarian): > 100 µM | TGI (CCRF-CEM leukemia): > 100 µM | TGI (ACHN renal): > 100 µM | TGI (MOLT-4 leukemia): > 100 µM | TGI (U251 CNS): > 100 µM | TGI (UACC-62 melanoma): > 100 µM | TGI (KM20L2 colon): > 100 µM | TGI (DMS 114 small cell lung): > 100 µM | TGI (KM12 colon): > 100 µM | TGI (OVCAR-3 ovarian): > 100 µM | TGI (UACC-257 melanoma): > 100 µM | TGI (MALME-3M melanoma): > 100 µM | TGI (SF-295 CNS): > 100 µM | TGI (786-0 renal): > 100 µM | TGI (SR leukemia): > 100 µM | TGI (NCI-H226 lung): > 100 µM | TGI (XF 498 CNS): > 100 µM | TGI (LXFL 529 NSCLC): > 100 µM | TGI (SK-MEL-2 melanoma): > 100 µM | TGI (M14 melanoma): > 100 µM | TGI (CAKI-1 renal): > 100 µM | TGI (SF-539 CNS): > 100 µM | TGI (LOX IMVI melanoma): > 100 µM | TGI (NCI-H23 lung): > 100 µM

OCCCCOC(c1ccccc1)(c1ccccc1)c1ccccc1
TGI (NCI-H522 lung): > 100 µM | TGI (SK-MEL-28 melanoma): > 100 µM | TGI (A549 NSCLC): > 100 µM | TGI (DMS 273 small cell lung): > 100 µM | TGI (HCC-2998 colon): > 100 µM | TGI (UO-31 renal): > 100 µM | TGI (DLD-1 colon): > 100 µM | TGI (SNB-78 CNS): > 100 µM | TGI (SW-620 colon): > 100 µM | TGI (SK-MEL-5 melanoma): > 100 µM | TGI (HCT-15 colon): > 100 µM | TGI (RXF 393 renal): > 100 µM | TGI (HOP-92 NSCLC): > 100 µM | TGI (HCT-116 colon): > 100 µM | TGI (HL-60(TB) leukemia): > 100 µM | TGI (TK-10 renal): > 100 µM | TGI (SF-268 CNS): > 100 µM | TGI (OVCAR-5 ovarian): > 100 µM | TGI (SK-OV-3 ovarian): > 100 µM | TGI (RPMI-8226 leukemia): > 100 µM | TGI (SNB-75 CNS): > 100 µM | TGI (IGROV1 ovarian): > 100 µM | TGI (HOP-62 NSCLC): > 100 µM | TGI (K-562 leukemia): > 100 µM | TGI (COLO 205 colon): > 100 µM | TGI (HT29 colon): > 100 µM | TGI (SN12C renal): > 100 µM | TGI (OVCAR-4 ovarian): > 100 µM | TGI (CCRF-CEM leukemia): > 100 µM | TGI (NCI-H460 lung): > 100 µM | TGI (ACHN renal): > 100 µM | TGI (MOLT-4 leukemia): > 100 µM | TGI (U251 CNS): > 100 µM | TGI (UACC-62 melanoma): > 100 µM | TGI (KM20L2 colon): > 100 µM | TGI (DMS 114 small cell lung): > 100 µM | TGI (KM12 colon): > 100 µM | TGI (OVCAR-3 ovarian): > 100 µM | TGI (UACC-257 melanoma): > 100 µM | TGI (MALME-3M melanoma): > 100 µM | TGI (SF-295 CNS): > 100 µM | TGI (786-0 renal): > 100 µM | TGI (SR leukemia): > 100 µM | TGI (NCI-H226 lung): > 100 µM | TGI (XF 498 CNS): > 100 µM | TGI (OVCAR-8 ovarian): > 100 µM | TGI (LXFL 529 NSCLC): > 100 µM | TGI (M14 melanoma): > 100 µM | TGI (CAKI-1 renal): > 100 µM | TGI (SF-539 CNS): > 100 µM | TGI (LOX IMVI melanoma): > 100 µM | TGI (NCI-H23 lung): > 100 µM

CN(C)CCCNC(=O)c1cccc2ccccc12
TGI (NCI-H522 lung): > 100 µM | TGI (SK-MEL-28 melanoma): > 100 µM | TGI (A549 NSCLC): > 100 µM | TGI (DMS 273 small cell lung): > 100 µM | TGI (DLD-1 colon): > 100 µM | TGI (SNB-78 CNS): > 100 µM | TGI (SW-620 colon): > 100 µM | TGI (SK-MEL-5 melanoma): > 100 µM | TGI (HCT-15 colon): > 100 µM | TGI (RXF 393 renal): > 100 µM | TGI (HCT-116 colon): > 100 µM | TGI (HL-60(TB) leukemia): > 100 µM | TGI (TK-10 renal): > 100 µM | TGI (SF-268 CNS): > 100 µM | TGI (SNB-19 CNS): > 100 µM | TGI (SK-OV-3 ovarian): > 100 µM | TGI (SNB-75 CNS): > 100 µM | TGI (K-562 leukemia): > 100 µM | TGI (HT29 colon): > 100 µM | TGI (SN12C renal): > 100 µM | TGI (OVCAR-4 ovarian): > 100 µM | TGI (CCRF-CEM leukemia): > 100 µM | TGI (NCI-H460 lung): > 100 µM | TGI (ACHN renal): > 100 µM | TGI (MOLT-4 leukemia): > 100 µM | TGI (U251 CNS): > 100 µM | TGI (UACC-62 melanoma): > 100 µM | TGI (DMS 114 small cell lung): > 100 µM | TGI (KM12 colon): > 100 µM | TGI (OVCAR-3 ovarian): > 100 µM | TGI (UACC-257 melanoma): > 100 µM | TGI (MALME-3M melanoma): > 100 µM | TGI (SF-295 CNS): > 100 µM | TGI (NCI-H226 lung): > 100 µM | TGI (XF 498 CNS): > 100 µM | TGI (OVCAR-8 ovarian): > 100 µM | TGI (LXFL 529 NSCLC): > 100 µM | TGI (SK-MEL-2 melanoma): > 100 µM | TGI (SF-539 CNS): > 100 µM | TGI (LOX IMVI melanoma): > 100 µM | TGI (NCI-H23 lung): > 100 µM
